From ChEMBL document CHEMBL1201862, “PubChem BioAssay data set” (2004)
Active and inactive are the calls of the source. Cut-off read from the data, not from the text of the source: active = IC50 of 10 µM or less and inactive = more.

Legend:
[1] = molecular target: T1, Neuropeptides B/W receptor type 1 (Homo sapiens, UniProt P48145); experiment: GPR7 antagonist potency, late-stage follow-up, cell-based, fluorescence, dose response, set 6 (AID 588583); type: functional
T1 sequence (P48145 whole entry): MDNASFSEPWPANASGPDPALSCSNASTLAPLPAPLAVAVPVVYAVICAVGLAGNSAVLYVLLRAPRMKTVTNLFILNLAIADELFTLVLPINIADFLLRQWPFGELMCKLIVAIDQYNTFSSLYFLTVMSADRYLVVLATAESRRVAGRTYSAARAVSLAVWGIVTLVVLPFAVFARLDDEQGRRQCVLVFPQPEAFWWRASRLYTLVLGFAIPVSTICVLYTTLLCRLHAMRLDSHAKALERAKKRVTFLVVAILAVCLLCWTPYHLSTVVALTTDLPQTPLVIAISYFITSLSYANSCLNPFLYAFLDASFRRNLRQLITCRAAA

[2] = molecular target: Melanin-concentrating hormone receptor 1 (Homo sapiens, UniProt Q99705); experiment: Late-stage fluorescence-based counterscreen for antagonists of the G-protein coupled receptor 7 (GPR7): cell-based dose response assay to identify antagonists of the melanin-concentrating hormone receptor 1 (MCHR1) Set 6.; type: functional
Chain of Melanin-concentrating hormone receptor 1 (Q99705 whole entry): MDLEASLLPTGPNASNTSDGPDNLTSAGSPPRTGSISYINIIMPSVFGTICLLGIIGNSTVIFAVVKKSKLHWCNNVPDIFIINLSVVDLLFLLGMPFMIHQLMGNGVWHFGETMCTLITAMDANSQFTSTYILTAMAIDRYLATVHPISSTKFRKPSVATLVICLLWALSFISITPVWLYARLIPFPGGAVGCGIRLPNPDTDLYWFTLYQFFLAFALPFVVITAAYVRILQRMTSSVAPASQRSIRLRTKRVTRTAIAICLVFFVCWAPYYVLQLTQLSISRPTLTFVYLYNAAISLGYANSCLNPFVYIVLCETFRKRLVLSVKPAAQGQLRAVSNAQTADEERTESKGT

Structure (SMILES): N#CC(c1ccccc1)c1c(S)cnn(Cc2cccc3ccccc23)c1=O (configuration not stated)
- IC50 [1]: > 20 µM (inactive)
- IC50 [2]: > 20 µM (inactive)
